# From ChEMBL document CHEMBL1201862, “PubChem BioAssay data set” (2004)
# Calls of active or inactive are those of the source.
# Columns and labels:
# [1] = target: CAAX prenyl protease 1 (Saccharomyces cerevisiae S288c, UniProt P47154); assay: yeast CAAX protease Ste24 inhibition – biochemical, S. cerevisiae, plate reader, cherry-pick, dose response (AID 488815)
# [2] = viability loss of HMLE_sh_eGFP cells – cell-based, luminescence, counter-screen for HMLE_sh_ECad selective toxicity project, dose response (AID 463074); format: functional, Homo sapiens;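 further: HMLE human mammary epithelial cells expressing control shRNA against eGFP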
# [3] = Luminescence Cell-Based Dose Retest to Confirm Inhibitors of Cancer Stem Cells. [Related pubchem assays (depositor defined):AID2717, AID2721]; format: functional; details: Homo sapiens
# [4] = target: T1, Mu-type opioid receptor (Homo sapiens, UniProt P35372); assay: mu opioid receptor blockers – image-based, SAR follow-up (AID 2420); format: functional;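 further: compounds added before stimulation of receptor with agonist DAMGO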
# T1 sequence (P35372 whole entry): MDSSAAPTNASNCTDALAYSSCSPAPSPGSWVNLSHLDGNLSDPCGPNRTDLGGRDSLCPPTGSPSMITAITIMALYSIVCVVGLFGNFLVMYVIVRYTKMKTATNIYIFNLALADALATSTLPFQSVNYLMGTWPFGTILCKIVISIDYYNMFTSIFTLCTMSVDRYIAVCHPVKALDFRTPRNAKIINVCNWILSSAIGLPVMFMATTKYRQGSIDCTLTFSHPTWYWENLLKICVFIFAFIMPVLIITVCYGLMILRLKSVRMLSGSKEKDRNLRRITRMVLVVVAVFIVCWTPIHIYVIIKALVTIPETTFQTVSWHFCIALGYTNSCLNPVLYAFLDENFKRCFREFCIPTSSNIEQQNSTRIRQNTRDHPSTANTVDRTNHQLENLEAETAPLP
# [5] = target: T1, Mu-type opioid receptor; assay: mu opioid receptor activators, image-based, SAR follow-up (AID 2352); format: functional
# [6] = target: T2, Kappa-type opioid receptor (Homo sapiens, UniProt P41145); assay: kappa opioid receptor activation potency – imaging, image-based, SAR follow-up (AID 2359); format: functional
# T2 sequence (P41145 whole entry): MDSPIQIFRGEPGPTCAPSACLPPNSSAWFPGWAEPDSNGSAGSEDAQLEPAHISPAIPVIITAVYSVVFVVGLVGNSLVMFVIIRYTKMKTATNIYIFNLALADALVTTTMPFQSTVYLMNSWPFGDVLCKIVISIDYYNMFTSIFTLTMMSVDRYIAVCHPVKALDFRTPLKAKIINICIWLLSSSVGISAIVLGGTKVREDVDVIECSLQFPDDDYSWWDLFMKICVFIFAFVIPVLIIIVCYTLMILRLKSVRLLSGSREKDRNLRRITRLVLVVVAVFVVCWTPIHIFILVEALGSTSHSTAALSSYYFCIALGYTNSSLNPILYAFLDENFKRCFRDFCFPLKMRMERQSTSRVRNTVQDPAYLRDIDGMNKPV
# [7] = target: T2, Kappa-type opioid receptor; assay: SAR analysis of small molecule agonists of the kappa opioid receptor via a luminescent beta-arrestin assay. [Related pubchem assays (depositor defined):AID1777, AID1786, AID1966, AID2133, AID2136, AID2348, AID2352, AID2357, AID2359, AID2370, AID2420, AID2478, AID2491, AID2492, AID2493, AID2497, AID2498, AID2500, AID449737, AID488822, AID488842]; format: functional
# [8] = target: T3, Delta-type opioid receptor (Homo sapiens, UniProt P41143); assay: DOR agonists, SAR follow-up, image-based (AID 2370); format: functional
# T3 sequence (P41143 whole entry): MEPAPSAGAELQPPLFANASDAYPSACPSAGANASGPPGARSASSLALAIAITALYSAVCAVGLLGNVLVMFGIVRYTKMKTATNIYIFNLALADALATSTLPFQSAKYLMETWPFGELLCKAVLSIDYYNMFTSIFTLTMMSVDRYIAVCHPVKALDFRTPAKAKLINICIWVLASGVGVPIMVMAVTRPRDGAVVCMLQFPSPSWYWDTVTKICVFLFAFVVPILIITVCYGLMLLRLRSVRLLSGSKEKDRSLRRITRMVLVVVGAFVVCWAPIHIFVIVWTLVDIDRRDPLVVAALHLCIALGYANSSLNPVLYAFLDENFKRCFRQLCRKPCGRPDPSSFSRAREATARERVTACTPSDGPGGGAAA
# [9] = target: T2, Kappa-type opioid receptor; assay: kappa opioid receptor blockers, image-based, SAR follow-up (AID 2348); format: functional
# [10] = target: T3, Delta-type opioid receptor; assay: delta opioid receptor blockers – image-based, SAR follow-up (AID 2357); format: functional
# [11] = target: T4, Cytochrome P450 2D6 (Homo sapiens, UniProt P10635);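 further: CYP2D6 member of a cytochrome P450 panel assay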
# T4 sequence (P10635 whole entry): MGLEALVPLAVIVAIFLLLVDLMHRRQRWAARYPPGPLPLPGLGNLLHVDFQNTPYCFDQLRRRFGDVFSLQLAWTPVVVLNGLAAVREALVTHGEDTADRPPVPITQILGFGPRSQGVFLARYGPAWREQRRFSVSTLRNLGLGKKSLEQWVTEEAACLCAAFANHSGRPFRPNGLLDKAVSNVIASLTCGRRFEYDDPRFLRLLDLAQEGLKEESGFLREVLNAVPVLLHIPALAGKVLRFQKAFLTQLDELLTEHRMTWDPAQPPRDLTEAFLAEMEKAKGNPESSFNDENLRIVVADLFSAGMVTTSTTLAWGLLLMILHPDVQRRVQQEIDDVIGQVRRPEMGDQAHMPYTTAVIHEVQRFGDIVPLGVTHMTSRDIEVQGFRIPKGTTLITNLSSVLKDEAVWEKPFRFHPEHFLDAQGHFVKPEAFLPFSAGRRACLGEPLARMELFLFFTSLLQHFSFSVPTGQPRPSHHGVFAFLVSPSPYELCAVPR
# [12] = target: T4, Cytochrome P450 2D6; remark: listed apart in the source
# CAAX prenyl protease 1, sequence (P47154 whole entry): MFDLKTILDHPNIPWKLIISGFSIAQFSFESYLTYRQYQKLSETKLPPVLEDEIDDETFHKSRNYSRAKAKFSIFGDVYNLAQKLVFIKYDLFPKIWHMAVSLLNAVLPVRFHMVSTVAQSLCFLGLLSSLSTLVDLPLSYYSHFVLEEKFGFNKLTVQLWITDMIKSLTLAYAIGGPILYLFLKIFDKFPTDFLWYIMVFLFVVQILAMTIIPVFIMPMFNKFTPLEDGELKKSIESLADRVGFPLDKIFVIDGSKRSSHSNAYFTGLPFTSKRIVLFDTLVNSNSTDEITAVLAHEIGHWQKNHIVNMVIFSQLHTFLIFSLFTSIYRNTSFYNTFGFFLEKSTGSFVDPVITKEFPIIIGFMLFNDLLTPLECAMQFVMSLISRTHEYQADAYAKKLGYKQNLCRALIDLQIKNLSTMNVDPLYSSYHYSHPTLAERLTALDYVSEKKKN
compound,measurement,setting,value
CCOC(=O)c1cc(C)nc(O)c1C#N,AC50,[1],12.3 µM (active)
COc1ccc(-c2ccc3oc(-c4ccc(OC)cc4)c(C#CC4(O)CCCCC4)c3c2)cc1,AC50,[2],29.8 µM (active)
same,AC50,[3],5.32 µM (active)
O=C(c1cnccn1)N(Cc1cccs1)C1(C(=O)NC2CCCCC2)CCCCC1,IC50,[4],> 32 µM (inactive)
same,EC50,[5],> 32 µM (inactive)
same,EC50,[6],141 nM (active)
same,EC50,[7],444 nM (active)
same,EC50,[8],> 32 µM (inactive)
same,IC50,[9],> 32 µM (inactive)
same,IC50,[10],> 32 µM (inactive)
CC(C)(C)c1o[nH]c(=O)c1C[C@H](N)C(=O)O,AC50,[11],inconclusive
same,AC50,[12],1.58 µM (inconclusive)
